Converted amounts (≈) assume the structure as drawn. Where two headings read alike, the source gives them in different places.
Key:
S. aureus ATCC 13709 = assay: MIC assay, S. aureus; type: cell-based; conditions: Staphylococcus aureus, ATCC13709
Experimental: (§1) In vitro structure/activity relationship (“SAR”) tests were performed according to the following procedure: MIC assays were carried out in a 150 μL volume in duplicate in 96-well clear flat-bottom plates. The bacterial suspension from an overnight culture growth in the appropriate medium was added to a solution of test compound in 0.5% DMSO in water. Final bacterial inoculum was approximate 10^3-10^4 CFU/well. The percentage growth of the bacteria in the test wells relative to that observed for a control well containing no compound was determined by measuring absorbance at 595 nm (A595) after 20-24 h at 37° C. […] The bacterial strains used for the assays include S. aureus ATCC 13709, S. pyogenes ATCC 49399, E. faecalis ATCC 29212, E. faecium ATCC 6569, E. coli ATCC 25922, K. pneumoniae ATCC 13383, P. vulgaris ATCC 8427, P. aeruginosa ATCC 25416. The results of the in vitro SAR tests are in Tables 1-3.

S. pyogenes ATCC 49399 = assay: MIC assay, S. pyogenes; type: cell-based; conditions: Streptococcus pyogenes, ATCC49399; read-out: MIC S. pyogenes ATCC 49399
Experimental: as §1

E. faecalis ATCC 29212 = assay: MIC assay, E. faecalis; type: cell-based; conditions: Enterococcus faecalis, ATCC29212; read-out: MIC E. faecalis ATCC 29212
Experimental: as §1

E. faecium ATCC 6569 = assay: MIC assay, E. faecium; type: cell-based; conditions: Enterococcus faecium, ATCC6569; read-out: MIC E. faecium ATCC 6569
Experimental: as §1

E. coli ATCC 25922 = assay: MIC assay, E. coli; type: cell-based; conditions: Escherichia coli, ATCC25922; read-out: MIC E. coli ATCC 25922
Experimental: as §1

K. pneumoniae ATCC 13383 = assay: MIC assay, K. pneumoniae; type: cell-based; conditions: Klebsiella pneumoniae, ATCC13383; read-out: MIC K. pneumoniae ATCC 13383
Experimental: as §1

P. vulgaris ATCC 8427 = assay: MIC assay, P. vulgaris; type: cell-based; conditions: Proteus vulgaris, ATCC8427; read-out: MIC P. vulgaris ATCC 8427
Experimental: as §1

P. aeruginosa ATCC 25416 = assay: MIC assay, P. aeruginosa; type: cell-based; conditions: Pseudomonas aeruginosa, ATCC25416; read-out: MIC P. aeruginosa ATCC 25416
Experimental: as §1

[1] = MIT HUH-7 CC50 48h cytotoxicity; type: cell-based; conditions: human, HUH-7 cells; HUH-7, 48h
log P = type: physicochemical
S. aureus (ATCC 13709) = assay: Mouse Protection Assay (lethal murine model of bacterial infection); type: in vivo, ICR-CD-1 female mice; conditions: 14b HCl salt
Experimental: The in vivo tests were preformed according to the following procedure:
Mouse Protection Assay: 10 mice/dose group (ICR-CD-1 female mice 18-20 grams, Charles River) were infected with a lethal dose (10^6 CFU/mouse) of S. aureus (ATCC 13709) suspended in 7.5% hog Gastric Mucin IP. The infected animals were treated at 1 h and 3 h post infection with either compound 12e (lactate salt) from 37 mg/kg down to 2.3 mg/kg or compound 14b (HCl salt) from 75 mg/kg down to 2.3 mg/kg (0.1 mL/mouse). The positive control drug was Vancomycin (Eli Lilly) 1 mg/kg.

[2] = Acute Toxicity Study (maximum tolerated dose); type: in vivo; conditions: observed seven days; for toxic dose via the IP route: intraperitoneal, 150 down to 19 mg/kg tested; for survival in the subQ group: subcutaneous, 150 down to 19 mg/kg, compound appeared to precipitate at injection site
Experimental: Acute Toxicity Study: The maximum tolerated dose for either compound 12e or 14b was determined by administering the compound from 150 mg/kg down to 19 mg/kg given either intraperitoneally (IP) or subcutaneously (subQ). […] On autopsy some of the compound appeared to precipitate at the injection site thereby reducing the effective dose. Via the IP route compound 12e was toxic down to 37 mg/kg and compound 14b was only toxic at 150 mg/kg.

[3] = Table 2, benzylamino group modified analogs, read-out: MIC S. aureus
[4] = Table 4, read-out: MIC S. aureus ATCC 13709
[5] = 2.3 × 2 mg/Kg, 1 h and 3 h post infection, one week, 12e lactate salt
[6] = 4.7 × 2 mg/Kg, 1 h and 3 h post infection, one week, 12e lactate salt
[7] = 9.4 × 2 mg/Kg, 1 h and 3 h post infection, one week, 12e lactate salt
[8] = 18.8 × 2 mg/Kg, 1 h and 3 h post infection, one week, 12e lactate salt
[9] = 37.5 × 2 mg/Kg, 1 h and 3 h post infection, one week, 12e lactate salt

Row | Structure (SMILES) | MIC (S. aureus ATCC 13709; [3]) | MIC (S. aureus ATCC 13709; [4]) | MIC (S. pyogenes ATCC 49399) | MIC (E. faecalis ATCC 29212) | MIC (E. faecium ATCC 6569) | MIC (E. coli ATCC 25922) | MIC (K. pneumoniae ATCC 13383) | MIC (P. vulgaris ATCC 8427) | MIC (P. aeruginosa ATCC 25416) | CC50 at 48 h [1] | logP (log P) | Mice Alive/Total (S. aureus (ATCC 13709); [5]) | Mice Alive/Total (S. aureus (ATCC 13709); [6]) | Mice Alive/Total (S. aureus (ATCC 13709); [7]) | Mice Alive/Total (S. aureus (ATCC 13709); [8]) | Mice Alive/Total (S. aureus (ATCC 13709); [9]) | toxic dose via the IP route [2] | survival in the subQ group [2] | Mice Alive/Total (S. aureus (ATCC 13709); 75 × 2 mg/Kg, treated 1 h and 3 h post infection, observed one week)
1 | O=C(NCCCNCc1ccc(-c2ccccc2)cc1)Nc1ccc(C(F)(F)F)cc1 [12e, 1-{3-[(Biphenyl-4-ylmethyl)-amino]-propyl}-3-(4-trifluoromethyl-phenyl)-urea] | 3 to 6 µM (≈ 1.28 to 2.56 µg/mL) | 3 to 6 µM (≈ 1.28 to 2.56 µg/mL) | 3 to 6 µM (≈ 1.28 to 2.56 µg/mL) | > 100 µM | > 100 µM | 6 to 12 µM (≈ 2.56 to 5.13 µg/mL) | 6 to 12 µM (≈ 2.56 to 5.13 µg/mL) | 12 to 25 µM (≈ 5.13 to 10.7 µg/mL) | > 100 µM | 25 to 50 µM | 4.91 | 0/10 | 2/10 | 4/10 | 3/10 | 3/10 | ≥ 37 mg/kg | all animals survived at all doses tested | 
2 | CN(CCCNC(=O)Nc1ccc(C(F)(F)F)cc1)CCCOc1ccc(Br)cc1Br [14b, 1-(3-{[3-(2,4-Dibromo-phenoxy)-propyl]-methyl-amino}-propyl)-3-(4-trifluoromethyl-phenyl)-urea] | 3 to 6 µM (≈ 1.7 to 3.4 µg/mL) | 3 to 6 µM (≈ 1.7 to 3.4 µg/mL) | 3 to 6 µM (≈ 1.7 to 3.4 µg/mL) | 3 to 6 µM (≈ 1.7 to 3.4 µg/mL) | > 100 µM | 12 to 25 µM (≈ 6.81 to 14.2 µg/mL) | 3 to 6 µM (≈ 1.7 to 3.4 µg/mL) | 12 to 25 µM (≈ 6.81 to 14.2 µg/mL) | > 100 µM | > 100 µM | 5.3 | 3/10 | 4/10 | 6/10 | 6/10 | 7/10 | 150 mg/kg | all animals survived at all doses tested | 4/10
3 | O=C(NCCCNCc1ccc(Oc2ccccc2)cc1)Nc1ccc(C(F)(F)F)cc1 [12h, 1-[3-(4-Phenoxy-benzylamino)-propyl]-3-(4-trifluoromethyl-phenyl)-urea] | 3 to 6 µM (≈ 1.33 to 2.66 µg/mL) | 3 to 6 µM (≈ 1.33 to 2.66 µg/mL) | 3 to 6 µM (≈ 1.33 to 2.66 µg/mL) | 3 to 6 µM (≈ 1.33 to 2.66 µg/mL) | > 100 µM | 6 to 12 µM (≈ 2.66 to 5.32 µg/mL) | 6 to 12 µM (≈ 2.66 to 5.32 µg/mL) | 12 to 25 µM (≈ 5.32 to 11.1 µg/mL) | > 100 µM | 12.5 to 25 µM | 4.77 |  |  |  |  |  |  |  | 
4 | CCOc1c(Br)cc(Br)cc1CNCCCNC(=O)Nc1ccc(C(F)(F)F)cc1 [12s, 1-[3-(3,5-Dibromo-2-ethoxy-benzylamino)-propyl]-3-(4-trifluoromethyl-phenyl)-urea] | 3 to 6 µM (≈ 1.66 to 3.32 µg/mL) | 3 to 6 µM (≈ 1.66 to 3.32 µg/mL) | 3 to 6 µM (≈ 1.66 to 3.32 µg/mL) | 6 to 12 µM (≈ 3.32 to 6.64 µg/mL) | 6 to 12 µM (≈ 3.32 to 6.64 µg/mL) | 12 to 25 µM (≈ 6.64 to 13.8 µg/mL) | 3 to 6 µM (≈ 1.66 to 3.32 µg/mL) | 12 to 25 µM (≈ 6.64 to 13.8 µg/mL) | > 100 µM | 50 to 100 µM | 5.1 |  |  |  |  |  |  |  | 
